Data: US20220017541A1, “INHIBITORS OF ARGINASE” (Black Belt Tx Ltd, priority 2018, published 2022)
Each block holds one compound with its values, some of them ahead of it.

What was measured:
recombinant human ARG1 = biological target: T1, recombinant human ARG1 (Homo sapiens, UniProt P05089); assay: Arginase enzymatic assay in vitro, recombinant human ARG1 (colorimetric urea detection); type: biochemical; conditions: recombinant human arginase 1; read-out: IC50 Inh rhARG1
T1 construct: purchased R&D System 5868-AR-010
T1 sequence (P05089 1-322): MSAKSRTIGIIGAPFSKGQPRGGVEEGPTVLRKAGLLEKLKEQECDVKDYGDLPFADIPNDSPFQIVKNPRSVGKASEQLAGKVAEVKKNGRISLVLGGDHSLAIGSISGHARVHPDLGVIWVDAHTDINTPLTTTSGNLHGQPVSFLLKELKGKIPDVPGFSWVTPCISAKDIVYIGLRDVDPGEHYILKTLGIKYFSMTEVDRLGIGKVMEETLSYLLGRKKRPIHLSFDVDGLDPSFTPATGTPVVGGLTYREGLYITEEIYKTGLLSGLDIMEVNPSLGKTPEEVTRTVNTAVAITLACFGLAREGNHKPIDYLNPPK
Description: (§1) Arginase catalyzes the hydrolysis of L-arginine into L-ornithine and urea. Urea amount produced by this reaction can be detected using a colorimetric assay and used as an indirect measurement of arginase activity. An adapted protocol from (Baggio, R., et al., J Pharmacol Exp Ther, 1999. 290(3): p. 1409-16) was used for the testing the ability of exemplary compounds of the invention to inhibit arginase enzymes from a variety of sources including recombinant human ARG1 and 2, lysates of human red blood cells (RBC) and intact murine macrophages, as described below.
(§2) Compounds of the invention were prepared from powder as 10 mM stock solutions in DMSO and stored in presence of N2 neutral atmosphere at −80° C. For IC50 determination and just before the assay, exemplary compounds were successively diluted to get the following concentrations: 210, 70, 21, 7, 2.1, 0.7, 0.21, 0.07, 0.021, 0.007, 0.0021 and 0.0007 μM (i.e., final concentrations in the wells of 30, 10, 3, 1, 0.3, 0.1, 0.03, 0.01, 0.003, 0.001, 0.0003, 0.0001 μM).
(§3) Assays were run in clear flat bottom 96-well plates (Nunclon, Cat. No. #167008) adding in each well the following solutions in this order: (1) 10 μl of Tris-HCl solution supplemented with 0.1% bovine serum albumin (BSA) containing 1.563 μg/ml recombinant human ARG1 (R&D System, Cat. No. #5868-AR-010), (2) 30 μl of Tris-HCl buffer containing 10 mM MnCl2 and (3) 10 μL of a pre-dilution of each test article or DMSO (vehicle). Compounds were allowed to interact with the enzyme-cofactor complex pre-incubating the plate at 37° C. for 30 min. To start the reaction, 20 μl of 50 mM L-arginine (Sigma Aldrich Cat. #A5006-100G) were added to each well in exception of the blank reaction (see below). All reactions were allowed to happen for 1 h at 37° C. To detect the urea production, reactions were stopped by adding 200 μl of a mixture of reagent A (4 mM o-phthalaldehyde in 50 mM Boric Acid, 1 M Sulfuric Acid, 0.03% Brij-35 (w/v)) and reagent B (4 mM N-(1-naphthyl)ethylenediamine in 50 mM Boric Acid, 1 M Sulfuric Acid, 0.03% Brij-35 (w/v)) in equal proportion. Color product was developed for 1 h at room temperature (RT) protected from light and then absorbance at 520 nm was measured using a Multifunction Microplate Reader (Synergy 4, Bioteck). Blank reactions were carried out by adding the L-arginine substrate only after the addition of mixture A-B. All reactions were carried out in duplicates.
(§4) The inhibition of urea production was calculated subtracting the absorbance from the blank reaction (zero enzymatic urea production) to the absorbance from all reactions and it was expressed as the percentage of the absorbance from the reaction containing the test article with respect to the absorbance from vehicle reaction (maximum of urea production).

[1] = biological target: T2, native ARG1 enzyme in lysates of RBC (Homo sapiens, UniProt P05089); assay: Arginase enzymatic assay in RBC lysates from healthy donors; type: biochemical; conditions: human red blood cell lysates; read-out: IC50 Inh RBC
T2 construct: native ARG1 enzyme in lysates of RBC; from tissue; host or cells: human red blood cell lysates from healthy donors
T2 sequence (P05089 1-322): T1 sequence (P05089 1-322)
Description: as §1, §2, §3, §4
For testing inhibitory activity over RBC lysates from healthy donors, 10 μl of Tris-HCl solution supplemented with 0.1% BSA containing 160 μg RBC lysates per well was used instead.

recombinant human ARG2 = biological target: T3, recombinant human ARG2 (Homo sapiens, UniProt P78540); assay: Arginase enzymatic assay in vitro, recombinant human ARG2 (colorimetric urea detection); type: biochemical; conditions: recombinant human arginase 2; read-out: IC50 Inh rhARG2
T3 construct: purchased BPS Bioscience 71659
T3 sequence (P78540 23-354): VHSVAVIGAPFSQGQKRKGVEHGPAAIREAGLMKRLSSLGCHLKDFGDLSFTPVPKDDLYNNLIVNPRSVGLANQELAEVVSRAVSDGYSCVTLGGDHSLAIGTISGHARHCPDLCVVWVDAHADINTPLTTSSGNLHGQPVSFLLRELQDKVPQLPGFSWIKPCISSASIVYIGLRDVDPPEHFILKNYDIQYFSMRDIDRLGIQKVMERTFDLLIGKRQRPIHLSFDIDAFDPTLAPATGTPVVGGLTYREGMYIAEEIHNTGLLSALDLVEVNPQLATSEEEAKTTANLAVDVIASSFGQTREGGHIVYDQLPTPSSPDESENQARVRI
Description: as §1, §2, §3, §4
For testing inhibitory activity over recombinant human arginase II, 10 μl of Tris-HCl solution supplemented with 0.1% BSA containing 1.5 μg/ml recombinant human ARG2 (BPS Bioscience, Cat. No. #71659) was used instead of ARG1.

[2] = biological target: T4, arginase activity in intact BMM-M2 cells (Mus musculus, UniProt Q61176); assay: Cell-based arginase assay: urea production by cultured BMM-M2 cells; conditions: 10 μM test compound, 24 h, read-out: Inh. urea production @10 μM (%)
T4 construct: endogenous in cells; host or cells: bone-marrow derived macrophages from male C57BL/6 mice, polarised to M2 with IL-4
T4 sequence (Q61176 1-323): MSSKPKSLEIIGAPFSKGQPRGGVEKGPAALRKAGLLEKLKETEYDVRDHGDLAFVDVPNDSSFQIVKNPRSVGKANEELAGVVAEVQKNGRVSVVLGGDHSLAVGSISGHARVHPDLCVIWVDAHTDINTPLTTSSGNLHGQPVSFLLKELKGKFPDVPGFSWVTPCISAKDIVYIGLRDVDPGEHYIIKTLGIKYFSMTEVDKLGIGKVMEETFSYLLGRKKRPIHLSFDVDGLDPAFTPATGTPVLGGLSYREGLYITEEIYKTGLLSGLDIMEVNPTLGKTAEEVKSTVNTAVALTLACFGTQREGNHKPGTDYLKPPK
Procedure: Murine bone-marrow derived macrophages (BMM) represent a convenient in vitro model that enables differentiation of these cells towards M1 or M2 macrophages. Briefly, male C57BL/6 mice 7-8 weeks old were euthanized by carbon dioxide asphyxiation. Femur and tibiae bones were removed under aseptic conditions and collected in a plate containing sterile ice-cold PBS 1×. After sterilization of bones in 70% ethanol during 1 min, bones were placed into a clean Petri dish containing fresh sterile ice-cold PBS 1×. The ends of each bone were cut and the marrow cavity was flushed using forceps and syringes filled with pre-warmed complete α-MEM growing medium (α-MEM without red phenol (Life Technologies, Cat. No. #41061-029) supplemented with 10% FBS, penicillin and streptomycin). Bone marrow (BM) cells were harvested in a 15 ml clean tube and centrifuged at 400 g for 8 min at RT. Supernatant was discarded and BM pellet was re-suspended in 5 ml Ammonium-Chloride-Potassium (ACK) buffer for 5 minutes at RT to lysis RBC. BM cell suspension was centrifuged at 400 g for 8 min at RT. Supernatant was discarded and BM cell pellet was re-suspended in complete α-MEM growing medium and passed through a 70 μm cell restrainer to eliminate solid contaminates and cellular aggregates. BM cells were seeded in 8 ml of complete α-MEM growing medium supplemented with 100 ng/ml recombinant mouse M-CSF (R&D Systems, Cat. No. #416-ML-050) in 100-mm dishes. BM cells were cultured overnight to get rid of contaminating stromal cells in a humidified incubator with 5% CO2 at 37° C. At the following day, non-adherent cells were collected in a clean 15-ml tube and centrifuged at 400 g for 8 min at RT. Cell pellet was re-suspended in complete α-MEM growing medium and counted using a hemocytometer Neubauer's chamber. Hematopoietic precursor cells were differentiated into BMM in presence of complete α-MEM growing medium supplemented 50 ng/ml M-CSF for 3 days. Finally to polarize BMM towards M2 phenotype, cells were incubated in presence 20 ng/ml of recombinant mouse IL-4 (R&D Systems, Cat. No. #404-ML-010) added to fresh complete α-MEM growing medium supplemented 50 ng/ml M-CSF for 24 h.
At the day of the experiment, BMM-M2 were treated for 24 h with vehicle (DMSO) or compounds of the invention at 1 and 10 μM prepared in fresh complete α-MEM growing medium supplemented 50 ng/ml M-CSF, 20 ng/ml IL-4 and 10 mM L-arginine (Cat. No. #A5006, Sigma Aldrich). At the next day, 70 μl aliquots of each treated culture media (supernatants) were transferred into a clear 96-well plate. Measurements of urea produced by BMM-M2 were performed using the adapted protocol detailed in Example B1. Wells without BMM-M2 containing only treatment media (vehicle) were used to determine the zero cell-derived urea production (blank). All treatments were carried out in triplicates.
The inhibition of urea production was calculated subtracting the absorbance from the blank to the absorbance from all treatments and it was expressed as the percentage of the absorbance from the reaction containing the test article treatment with respect to the absorbance from vehicle treatment (maximum of urea production).

Structure (SMILES): NC(CCCCB(O)O)(C(=O)O)C1CCN(C2CCCc3cccnc32)CC1 (single isomer, unassigned) [Compound 32, 2-amino-6-borono-2-(1-(5,6,7,8-tetrahydroquinolin-8-yl)piperidin-4-yl)hexanoic acid]
IC50 (recombinant human ARG1): < 500 nM
IC50 [1]: < 500 nM
IC50 (recombinant human ARG2): < 500 nM

Structure (SMILES): NC(CCCCB(O)O)(C(=O)O)C1CCN(C2CCCc3cc(Cl)ccc32)CC1 (stereo not drawn) [Compound 16, 2-amino-6-borono-2-(1-(6-chloro-1,2,3,4-tetrahydronaphthalen-1-yl)piperidin-4-yl)hexanoic acid]
IC50 (recombinant human ARG1): < 500 nM
IC50 [1]: < 500 nM
IC50 (recombinant human ARG2): < 500 nM

Structure (SMILES): NC(CCCCB(O)O)(C(=O)O)C1CCN(C2CCCc3cc(Cl)ccc32)C1 (stereo not drawn) [Compound 48, 2-amino-6-borono-2-[1-(6-chlorotetralin-1-yl)pyrrolidin-3-yl]hexanoic acid]
inhibition at 10 µM [2]: < 15%
IC50 (recombinant human ARG1): 500 to 5000 nM
IC50 (recombinant human ARG2): 500 to 5000 nM

Structure (SMILES): NC(=O)C(N)(CCCCB(O)O)C1CCN(C2CCc3cc(Cl)ccc32)CC1 (stereo not drawn) [Compound 81, (5,6-diamino-5-(1-(5-chloro-2,3-dihydro-1H-inden-1-yl)piperidin-4-yl)-6-oxohexyl)boronic acid]
IC50 (recombinant human ARG1): 500 to 5000 nM
IC50 [1]: < 500 nM
IC50 (recombinant human ARG2): 500 to 5000 nM

Next, values leading:

inhibition at 10 µM [2]: > 25%
IC50 (recombinant human ARG1): < 500 nM
IC50 (recombinant human ARG2): 500 to 5000 nM
Structure (SMILES): CC(c1c(Cl)cccc1Cl)N1CCC(C(N)(CCCCB(O)O)C(=O)O)CC1 (single isomer, unassigned) [Compound 91, 2-amino-6-borono-2-(1-(1-(2,6-dichlorophenyl)ethyl)piperidin-4-yl)hexanoic acid]

inhibition at 10 µM [2]: < 15%
IC50 (recombinant human ARG1): 500 to 5000 nM
IC50 (recombinant human ARG2): 500 to 5000 nM
Structure (SMILES): CC(c1c(F)cccc1F)N1CCC(C(N)(CCCCB(O)O)C(=O)O)CC1 (single isomer, unassigned) [Compound 92, 2-amino-6-borono-2-(1-(1-(2,6-difluorophenyl)ethyl)piperidin-4-yl)hexanoic acid]

inhibition at 10 µM [2]: > 25%
IC50 (recombinant human ARG1): < 500 nM
IC50 (recombinant human ARG2): 500 to 5000 nM
Structure (SMILES): NC(CCCCB(O)O)(C(=O)O)C1CCN(C2CCc3cc(Cl)ccc32)C1 (stereo not drawn) [Compound 82, 2-amino-6-borono-2-[1-(5-chloroindan-1-yl)pyrrolidin-3-yl]hexanoic acid]
